# According to patent US20080312250A1, “Combination Comprising a Bcrp Inhibitor and 4- (4-Methylpiperazin-1-Ylmethyl)-N-[4-Methyl-3- (4-Pyridin-3-Yl) Pyrimidin-2-Ylamino) Phenyl] -Benzamide” (THE NETHERLANDS CANCER INSTITUTE, priority 2005, published 2008):
# What was measured:
# [1] = biological target: T1, murine Bcrp1 (Mus musculus, UniProt Q7TMS5); experiment: Transport of Compound I across MDCKII-Bcrp1 monolayers; type: in vitro ADME
# T1 construct: expressed in transfected cells; host or cells: MDCKII (Madin-Darby canine kidney strain II) cells, stably transfected
# T1 sequence (Q7TMS5 1-657): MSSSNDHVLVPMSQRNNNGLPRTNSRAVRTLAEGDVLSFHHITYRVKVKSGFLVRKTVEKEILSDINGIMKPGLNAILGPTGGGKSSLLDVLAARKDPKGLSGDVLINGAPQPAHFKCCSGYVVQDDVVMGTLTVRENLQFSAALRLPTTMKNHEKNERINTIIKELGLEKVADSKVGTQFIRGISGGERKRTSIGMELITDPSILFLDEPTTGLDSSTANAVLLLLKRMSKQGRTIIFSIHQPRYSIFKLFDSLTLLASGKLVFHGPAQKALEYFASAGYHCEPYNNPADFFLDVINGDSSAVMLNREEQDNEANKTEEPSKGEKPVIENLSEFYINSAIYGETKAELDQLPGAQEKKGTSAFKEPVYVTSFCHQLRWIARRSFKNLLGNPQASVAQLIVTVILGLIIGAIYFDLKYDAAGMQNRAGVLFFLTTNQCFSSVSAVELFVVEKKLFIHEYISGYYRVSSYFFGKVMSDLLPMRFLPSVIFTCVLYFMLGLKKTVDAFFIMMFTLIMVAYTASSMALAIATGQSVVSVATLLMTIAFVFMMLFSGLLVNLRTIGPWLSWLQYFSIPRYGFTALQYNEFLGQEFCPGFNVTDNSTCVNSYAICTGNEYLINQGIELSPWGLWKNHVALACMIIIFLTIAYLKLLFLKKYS
# Protocol: Transport across MDCKII monolayers. […] Animals.
# Transport of Compound I across MDCKII monolayers. […] To exclude any contribution of P-gp (12), the P-gp inhibitor zosuquidar (5 μM) is added (18).
# [2] = tested on: P-gp; details: single dose of elacridar; approximately; cited from earlier work
# [3] = biological target: T2, Bcrp1 (Mus musculus, UniProt Q7TMS5); experiment: Effect of pantoprazole and elacridar on Bcrp1-mediated transport of Compound I in MDCKII transfected cells; type: in vitro ADME, murine; details: 1 μM Compound I, zosuquidar 5 μM added for pantoprazole, data not shown
# T2 construct: expressed in transfected cells; host or cells: MDCKII (Madin-Darby canine kidney strain II) cells, stably transfected
# T2 sequence (Q7TMS5 1-657): T1 sequence (Q7TMS5 1-657)
# Protocol: Transport across MDCKII monolayers. The MDCKII (Madin-Darby canine kidney strain II) cells are cultured in Dulbecco's Modified Eagle's Medium supplemented with 10% fetal calf serum and 100 units penicillin/streptomycin per ml. Cells are grown at 37° C. with 5% CO2 under humidifying conditions. […] Animals. […] Mice are housed and handled according to institutional guidelines complying with Dutch legislation.
# In the experiments in which the effect of pantoprazole is studied, the P-gp inhibitor zosuquidar (5 μM) is added to exclude any contribution of P-gp.
"net active transport of Compound I by Bcrp1 ([1]; 1 and 10 μM Compound I, MDCKII-Bcrp1 and parental cells, P-gp inhibitor zosuquidar 5 μM added)","concentration above which Bcrp1 transport of Compound I is saturable ([1]; MDCKII-Bcrp1, zosuquidar 5 μM added)",effect on Bcrp1-mediated transport of Compound I [3],Structure (SMILES),P-gp inhibition [2]
approximately 20 % per h,above 10 μM,,Cc1ccc(NC(=O)c2ccc(CN3CCN(C)CC3)cc2)cc1Nc1nccc(-c2cccnc2)n1 [Compound I],
,,inhibit,COc1cc2c(cc1OC)CN(CCc1ccc(NC(=O)c3cccc4c(=O)c5cccc(OC)c5[nH]c34)cc1)CC2 [elacridar],70-80%
